Measurements published in patent US11370785B2, “Multicyclic compounds as farnesoid X receptor modulators” (BRISTOL-MYERS SQUIBB COMPANY, priority 2017, dated 2022).

Biological target: T1, human FXR (Homo sapiens, UniProt Q96RI1)
T1 construct: expressed in transfected cells; host or cells: HEK293 cells stably carrying a 5xGal4-response-element firefly luciferase reporter, transiently transfected with the pcDNA3.1-Gal4-FXR plasmid
T1 sequence (Q96RI1 262-486 limits assumed): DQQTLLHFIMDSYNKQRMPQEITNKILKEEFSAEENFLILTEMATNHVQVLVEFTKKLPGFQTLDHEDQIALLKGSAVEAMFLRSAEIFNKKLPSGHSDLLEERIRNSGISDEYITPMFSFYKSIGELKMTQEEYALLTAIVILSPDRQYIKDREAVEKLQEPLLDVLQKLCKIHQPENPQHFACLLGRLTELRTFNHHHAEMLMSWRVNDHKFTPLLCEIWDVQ
Assay: transient human FXR/Gal4-luciferase reporter assay
Type: cell-based
Details: Gal4-hFXR reporter in HEK293 cells; read-out: HLE GAL-FXR EC50
Protocol: The exemplified compounds of the present invention were tested in the transient human FXR/Gal4-luciferase reporter assay, and assay results were reported in Table 1 together with other analytical data.
A Gal4-hFXR fusion construct reporter system was used as the primary assay to characterize compound activity. A construct including 5 copies of the Gal4 promoter response element upstream of a firefly luciferase reporter cDNA was stably expressed in HEK293 cells. This reporter cell line was maintained in Dulbecco's Modified Eagle's medium (DMEM; Gibco) supplemented with 1% penicillin-streptomycin (P/S) solution, 500 μg/mL Zeocin and 10% charcoal/dextran-treated fetal bovine serum (cs-FBS) at 37° C. in a humidified 5% CO2 atmosphere. Another plasmid was constructed in which the human cytomegalovirus promoter in the pcDNA3.1 vector directs the expression of the cDNA encoding a fusion protein comprised of the DNA binding domain from the Gal4 transcription factor fused to the ligand binding domain from human FXR.
The day prior to transfection, the reporter cells in culture are detached from the plate with trypsin and plated into a T75 flask at a sufficient density to achieve approximately 90% confluence the next morning. The transfection reagents are prepared by separately diluting 25 μg of the pcDNA3.1-Gal4-FXR plasmid into 1.87 mL of Opti-MEM (Thermo-Fisher), and 40 μL of Lipofectamine 2000 (Thermo-Fisher) into 1.87 mL of Opti-MEM, and then adding the diluted DNA solution into the diluted Lipofectamine 2000 solution and incubating at room temperature for 15-20 minutes. The mixture is further diluted with 10 mL of a solution comprised of DMEM, 10% cs-FBS, and 1% P/S immediately prior to transferring to the cells. The maintenance culture media is aspirated from the cells and the final transfection mixture is added before the cells are incubated overnight at 37° C. in a humidified 5% CO2 atmosphere. This protocol can be scaled up, and the transiently transfected cells can be cryopreserved in an assay-ready format.
For compound testing, 100 nL of the compounds (serial dilutions in DMSO) are dispensed with an Echo acoustic dispenser (Labcyte) into the wells of a Corning/Costar clear bottom 384-well white plate. The transfected cells are harvested, counted, and diluted such that 10-25,000 cells in 25 μL are plated into each well of the 384-well compound assay plate. The compound-treated cells are incubated overnight at 37° C. in a humidified 5% CO2 atmosphere. The next morning 25 μL of Steady-Glo (Promega) are added to each well of the plate, the mixture is incubated for 15 min. with shaking, and luminescence is measured on an Envision (Perkin Elmer) plate reader. Background counts from cells treated with DMSO alone are subtracted from all raw counts, and the corrected values are converted to a percentage of the control response attained with 8 μM GW-4064.

EC50 [nM]	Structure (SMILES)
60	O=C(O)c1cc(F)c2nc(N3CCC4(CC3)CC(Nc3c(-c5c(Cl)cccc5Cl)noc3C3CC3)C4)sc2c1 [Example 5, 2-(2-((5-Cyclopropyl-3-(2,6-dichlorophenyl)isoxazol-4-yl)amino)-7-azaspiro[3.5]nonan-7-yl)-4-fluorobenzo[d]thiazole-6-carboxylic acid]

Same assay, conditions: Gal4-hFXR reporter in HEK293 cells; relative to 8 μM GW-4064; read-out: FXR EC50

EC50 [nM]	Structure (SMILES)
4	COc1cc(C(=O)O)nc2ccc(N3CCC4(CC3)CC(=Cc3c(-c5c(Cl)cccc5Cl)noc3C(F)(F)F)C4)cc12 [Example 140]
1350	O=C(O)c1cc2ccc(N3CCC4(CC3)CC(Cc3c(-c5ccccc5C(F)(F)F)noc3C3CC3)C4)cc2nn1 [Example 34]
1400	NC(=O)N1CCc2cc(N3CCC4(CC3)CC(=Cc3c(-c5ccccc5OC(F)(F)F)noc3C3CC3)C4)ccc2C1 [Example 180, 6-(2-((5-Cyclopropyl-3-(2-(trifluoromethoxy)phenyl)isoxazol-4-yl)methylene)-7-azaspiro[3.5]nonan-7-yl)-3,4-dihydroisoquinoline-2(1H)-carboxamide]
16	Cc1cc(C(=O)O)nc2ccc(N3CCC4(CC3)CC(Cc3c(-c5ccccc5C(F)(F)F)noc3C3CC3)C4)cc12 [Example 78]
23	COc1cc(C(=O)O)nc2ccc(N3CCC4(CC3)CC(=Cc3c(-c5ccccc5C(F)(F)F)noc3C(F)(F)F)C4)cc12 [Example 168]
306	CN(C)C(=O)c1cc(C(F)(F)F)c2cc(N3CCC4(CC3)CC(=Cc3c(-c5ccccc5C(F)(F)F)noc3C(F)(F)F)C4)ccc2n1 [Example 191]
125	CCOC(=O)c1cc(C(F)(F)F)c2cc(N3CCC4(CC3)CC(Cc3c(-c5ccccc5C(F)(F)F)noc3C3CC3)C4)ccc2n1 [Example 129]
17	COc1cc(C(=O)O)nc2ccc(N3CCC4(CC3)CC(Cc3c(-c5ccccc5C(F)(F)F)noc3C3CC3)C4)cc12 [Example 69]
960	O=C(O)c1cc2ccc(N3CCC4(CC3)CC(Cc3c(-c5ccccc5C(F)(F)F)noc3C3CC3)C4)cc2cn1 [Example 35]
481	CC(C)(C)OC(=O)N1c2ccc(N3CCC4(CC3)CC(=Cc3c(-c5ccccc5OC(F)(F)F)noc3C3CC3)C4)cc2CCC1C(=O)O (stereo not shown) [Example 111]
30	CCc1cncc(Cl)c1-c1noc(C2CC2)c1C=C1CC2(CCN(c3ccc4nc(C(=O)O)cc(C(F)(F)F)c4c3)CC2)C1 [Example 166]
1990	Cc1nc(C(=O)O)c2ccc(N3CCC4(CC3)CC(Cc3c(-c5ccccc5C(F)(F)F)noc3C3CC3)C4)cn12 [Example 75]
17	CCOc1cc(C(=O)O)nc2ccc(N3CCC4(CC3)CC(Cc3c(-c5ccccc5C(F)(F)F)noc3C3CC3)C4)cc12 [Example 99]
4	O=C(O)c1cc(OC2CCC2)c2cc(N3CCC4(CC3)CC(=Cc3c(-c5ccccc5C(F)(F)F)noc3C3CC3)C4)ccc2n1 [Example 108]
11	O=C(O)c1cc(OC2CCC2)c2cc(N3CCC4(CC3)CC(=Cc3c(-c5c(Cl)cncc5Cl)noc3C(F)(F)F)C4)ccc2n1 [Example 164]
744	O=C(O)c1ccc2nc(N3CCC4(CC3)CC(Cc3c(-c5ccccc5C(F)(F)F)noc3C3CC3)C4)sc2n1 [Example 114]
69	O=C(O)c1cc(F)c2nc(N3CCC4(CC3)CC(=Cc3c(-c5c(Cl)cncc5Cl)noc3C3CC3)C4)sc2c1 [Example 88]
472	O=C(O)c1cc(OCCO)c2cc(N3CCC4(CC3)CC(Cc3c(-c5ccccc5C(F)(F)F)noc3C3CC3)C4)ccc2n1 [Example 94]
260	O=C(O)c1cc(F)c2nc(N3CCC4(CC3)CC(=Cc3c(-c5c(Cl)cccc5Cl)noc3C3CC3)C4)sc2c1 [Example 130]
243	O=C(O)c1ccc2cc(N3CCC4(CC3)CC(Cc3c(-c5ccccc5C(F)(F)F)noc3C3CC3)C4)ccc2n1 [Example 32]
878	O=C(O)c1cc2ccc(N3CCC4(CC3)CC(=Cc3c(-c5ccccc5C(F)(F)F)noc3C3CC3)C4)cc2nn1 [Example 36]
172	O=C(O)c1ccc2cc(N3CCC4(CC3)CC(=Cc3c(-c5ccccc5C(F)(F)F)noc3C3CC3)C4)ccc2n1 [Example 29]
650	O=C(O)c1cc(F)c2nc(N3CCC4(CC3)CC(=Cc3c(-c5ccccc5C(F)(F)F)noc3C(F)(F)F)C4)sc2c1 [Example 169]
1410	O=C(O)c1cc2ccc(N3CCC4(CC3)CC(=Cc3c(-c5ccccc5C(F)(F)F)noc3C3CC3)C4)cc2cn1 [Example 37]
249	O=C(O)c1ccc2sc(N3CCC4(CC3)CC(=Cc3c(-c5c(Cl)cncc5Cl)noc3C3CC3)C4)nc2c1 [Example 103]
27	O=C(O)c1cc(C(F)(F)F)c2cc(N3CCC4(CC3)CC(=Cc3c(-c5c(Cl)cccc5Cl)noc3C(F)(F)F)C4)ccc2n1 [Example 136]

The remaining lines, values behind:

Structure (SMILES)	EC50 [nM]
O=C(O)C1(c2ccc(N3CCC4(CC3)CC(=Cc3c(-c5c(Cl)cccc5Cl)noc3C3CC3)C4)cc2)CCC1 [Example 42]	210
O=C(O)c1ccc(N2CCC3(CC2)CC(Nc2c(-c4c(Cl)cccc4Cl)noc2C2CC2)C3)nc1 [Example 13]	1220
O=C(O)c1cc2ccc(N3CCC4(CC3)CC(Cc3c(-c5c(Cl)cccc5Cl)noc3C3CC3)C4)cc2nn1 [Example 65]	204
NC(=O)c1cc(OC2CCC2)c2cc(N3CCC4(CC3)CC(Cc3c(-c5ccccc5C(F)(F)F)noc3C3CC3)C4)ccc2n1 [Example 171]	450
O=C(O)c1ccc(CCN2CCC3(CC2)CC(=Cc2c(-c4c(Cl)cccc4Cl)noc2C2CC2)C3)cc1 [Example 44]	765
COc1ccc(C(=O)O)c2ccc(N3CCC4(CC3)CC(=Cc3c(-c5c(Cl)cncc5Cl)noc3C3CC3)C4)nc12 [Example 119]	336
CC(C)Oc1cc(C(=O)O)nc2ccc(N3CCC4(CC3)CC(Cc3c(-c5ccccc5OC(F)(F)F)noc3C3CC3)C4)cc12 [Example 90]	12
O=C(O)c1cc(OC2CCOC2)c2cc(N3CCC4(CC3)CC(Cc3c(-c5ccccc5C(F)(F)F)noc3C3CC3)C4)ccc2n1 (stereo not shown) [Example 151]	12
N#Cc1cccc(N2CCC3(CC2)CC(=Cc2c(-c4c(Cl)cccc4Cl)noc2C2CC2)C3)c1 [Example 49]	2570
CCN(C)C(=O)c1cc(OC2CCC2)c2cc(N3CCC4(CC3)CC(Cc3c(-c5ccccc5C(F)(F)F)noc3C3CC3)C4)ccc2n1 [Example 184]	37
O=C(O)c1ccc(CN2CCC3(CC2)CC(=Cc2c(-c4c(Cl)cccc4Cl)noc2C2CC2)C3)cc1 [Example 52]	4320
COc1cc2nc(N3CCC4(CC3)CC(=Cc3c(-c5c(Cl)cncc5Cl)noc3C3CC3)C4)sc2cc1C(=O)O [Example 102]	157
O=C(O)c1ccc2cc(N3CCC4(CC3)CC(Cc3c(-c5c(Cl)cccc5Cl)noc3C3CC3)C4)ccc2n1 [Example 40]	51
O=C(O)c1cc(OC2CCCC2)c2cc(N3CCC4(CC3)CC(=Cc3c(-c5c(Cl)cncc5Cl)noc3C3CC3)C4)ccc2n1 [Example 125]	15
COc1cc(C(=O)O)nc2ccc(N3CCC4(CC3)CC(Cc3c(-c5ccccc5OC(F)(F)F)noc3C3CC3)C4)cc12 [Example 71]	16
CN(C)C(=O)c1cc(OC2CCC2)c2cc(N3CCC4(CC3)CC(Cc3c(-c5ccccc5C(F)(F)F)noc3C3CC3)C4)ccc2n1 [Example 172, 4-Cyclobutoxy-6-(2-((5-cyclopropyl-3-(2-(trifluoromethyl)phenyl)isoxazol-4-yl)methyl)-7-azaspiro[3.5]nonan-7-yl)-N,N-dimethylquinoline-2-carboxamide]	69
O=C(O)COc1ccc(N2CCC3(CC2)CC(=Cc2c(-c4c(Cl)cccc4Cl)noc2C2CC2)C3)cc1 [Example 61]	461
O=C(O)c1cc(OCCO)c2cc(N3CCC4(CC3)CC(=Cc3c(-c5c(Cl)cncc5Cl)noc3C3CC3)C4)ccc2n1 [Example 95]	200
Cc1cccc(Cl)c1-c1noc(C2CC2)c1C=C1CC2(CCN(c3ccc4c(C(=O)O)cn(C)c4c3)CC2)C1 [Example 59]	10
